What was measured:
Assay type in all cases: functional
[1] = system: SN12C; experiment: Growth inhibition of human SN12C cells at 10^-5 M incubated for 48 hrs by sulforhodamine B assay; settings: read-out: GI
[2] = system: ACHN; experiment: Growth inhibition of human ACHN cells at 10^-5 M incubated for 48 hrs by sulforhodamine B assay; settings: read-out: GI
[3] = system: A498; experiment: Growth inhibition of human A498 cells at 10^-5 M incubated for 48 hrs by sulforhodamine B assay; settings: A498, 48 h, read-out: GI
[4] = system: TK-10; experiment: Growth inhibition of human TK10 cells at 10^-5 M incubated for 48 hrs by sulforhodamine B assay; settings: TK-10, 48 h, read-out: GI
[5] = system: SF-268; experiment: Growth inhibition of human SF268 cells at 10^-5 M incubated for 48 hrs by sulforhodamine B assay; settings: SF-268, 48 h, read-out: GI
[6] = system: CCRF-CEM; experiment: Growth inhibition of human CCRF-CEM cells at 10^-5 M incubated for 48 hrs by sulforhodamine B assay; settings: read-out: GI
[7] = system: MCF7; experiment: Growth inhibition of human MCF7 cells at 10^-5 M incubated for 48 hrs by sulforhodamine B assay; settings: MCF7, 48 h, read-out: GI
[8] = system: IGROV-1; experiment: Growth inhibition of human IGROV1 cells at 10^-5 M incubated for 48 hrs by sulforhodamine B assay; settings: IGROV-1, 48 h, read-out: GI
[9] = system: OVCAR-8; experiment: Growth inhibition of human OVCAR8 cells at 10^-5 M incubated for 48 hrs by sulforhodamine B assay; settings: OVCAR-8, 48 h, read-out: GI
[10] = system: SF-295; experiment: Growth inhibition of human SF295 cells at 10^-5 M incubated for 48 hrs by sulforhodamine B assay; settings: SF-295, 48 h, read-out: GI
[11] = system: NCI-H460; experiment: Growth inhibition of human NCI-H460 cells at 10^-5 M incubated for 48 hrs by sulforhodamine B assay; settings: NCI-H460, 48 h, read-out: GI
[12] = system: Malme-3M; experiment: Growth inhibition of human MALME-3M cells at 10^-5 M incubated for 48 hrs by sulforhodamine B assay; settings: read-out: GI
[13] = system: 786-0; experiment: Growth inhibition of human 786-0 cells at 10^-5 M incubated for 48 hrs by sulforhodamine B assay; settings: 786-0, 48 h, read-out: GI
[14] = system: DU-145; experiment: Growth inhibition of human DU145 cells at 10^-5 M incubated for 48 hrs by sulforhodamine B assay; settings: DU-145, 48 h, read-out: GI
[15] = system: NCI-H522; experiment: Growth inhibition of human NCI-H522 cells at 10^-5 M incubated for 48 hrs by sulforhodamine B assay; settings: NCI-H522, 48 h, read-out: GI
[16] = system: HOP-92; experiment: Growth inhibition of human HOP92 cells at 10^-5 M incubated for 48 hrs by sulforhodamine B assay; settings: HOP-92, 48 h, read-out: GI
[17] = system: SF-539; experiment: Growth inhibition of human SF539 cells at 10^-5 M incubated for 48 hrs by sulforhodamine B assay; settings: SF-539, 48 h, read-out: GI
[18] = system: KM12; experiment: Growth inhibition of human KM12 cells at 10^-5 M incubated for 48 hrs by sulforhodamine B assay; settings: KM12, 48 h, read-out: GI
[19] = system: HL-60(TB); experiment: Growth inhibition of human HL-60(TB) cells at 10^-5 M incubated for 48 hrs by sulforhodamine B assay; settings: HL-60, 48 h, read-out: GI
[20] = system: MDA-MB-435; experiment: Growth inhibition of human MDA-MB-435 cells at 10^-5 M incubated for 48 hrs by sulforhodamine B assay; settings: MDA-MB-435, 48 h, read-out: GI
[21] = system: HCT-116; experiment: Growth inhibition of human HCT116 cells at 10^-5 M incubated for 48 hrs by sulforhodamine B assay; settings: HCT-116, 48 h, read-out: GI
[22] = system: UACC-62; experiment: Growth inhibition of human UACC62 cells at 10^-5 M incubated for 48 hrs by sulforhodamine B assay; settings: UACC-62, 48 h, read-out: GI
[23] = system: SK-MEL-28; experiment: Growth inhibition of human SK-MEL-28 cells at 10^-5 M incubated for 48 hrs by sulforhodamine B assay; settings: SK-MEL-28, 48 h, read-out: GI
[24] = system: Hs-578T; experiment: Growth inhibition of human Hs 578T cells at 10^-5 M incubated for 48 hrs by sulforhodamine B assay; settings: read-out: GI
[25] = system: OVCAR-4; experiment: Growth inhibition of human OVCAR4 cells at 10^-5 M incubated for 48 hrs by sulforhodamine B assay; settings: OVCAR-4, 48 h, read-out: GI
[26] = system: K562; experiment: Growth inhibition of human K562 cells at 10^-5 M incubated for 48 hrs by sulforhodamine B assay; settings: K562, 48 h, read-out: GI
[27] = system: UO-31; experiment: Growth inhibition of human UO31 cells at 10^-5 M incubated for 48 hrs by sulforhodamine B assay; settings: UO-31, 48 h, read-out: GI
[28] = system: EKVX; experiment: Growth inhibition of human EKVX cells at 10^-5 M incubated for 48 hrs by sulforhodamine B assay; settings: read-out: GI
[29] = system: LOX IMVI; experiment: Growth inhibition of human LOXIMVI cells at 10^-5 M incubated for 48 hrs by sulforhodamine B assay; settings: read-out: GI
[30] = system: HOP-62; experiment: Growth inhibition of human HOP62 cells at 10^-5 M incubated for 48 hrs by sulforhodamine B assay; settings: HOP-62, 48 h, read-out: GI
[31] = system: SNB-19; experiment: Growth inhibition of human SNB19 cells at 10^-5 M incubated for 48 hrs by sulforhodamine B assay; settings: SNB-19, 48 h, read-out: GI
[32] = system: HT-29; experiment: Growth inhibition of human HT-29 cells at 10^-5 M incubated for 48 hrs by sulforhodamine B assay; settings: HT-29, 48 h, read-out: GI
[33] = system: SK-MEL-2; experiment: Growth inhibition of human SK-MEL-2 cells at 10^-5 M incubated for 48 hrs by sulforhodamine B assay; settings: SK-MEL-2, 48 h, read-out: GI
[34] = system: UACC-257; experiment: Growth inhibition of human UACC257 cells at 10^-5 M incubated for 48 hrs by sulforhodamine B assay; settings: UACC-257, 48 h, read-out: GI
[35] = system: SK-OV-3; experiment: Growth inhibition of human SKOV3 cells at 10^-5 M incubated for 48 hrs by sulforhodamine B assay; settings: SK-OV-3, 48 h, read-out: GI
[36] = system: M14; experiment: Growth inhibition of human M14 cells at 10^-5 M incubated for 48 hrs by sulforhodamine B assay; settings: M14, 48 h, read-out: GI
[37] = system: NCI-H23; experiment: Growth inhibition of human NCI-H23 cells at 10^-5 M incubated for 48 hrs by sulforhodamine B assay; settings: NCI-H23, 48 h, read-out: GI
[38] = system: OVCAR-5; experiment: Growth inhibition of human OVCAR5 cells at 10^-5 M incubated for 48 hrs by sulforhodamine B assay; settings: OVCAR-5, 48 h, read-out: GI
[39] = system: PC-3; experiment: Growth inhibition of human PC3 cells at 10^-5 M incubated for 48 hrs by sulforhodamine B assay; settings: PC-3, 48 h, read-out: GI

SMILES	inhibition of growth at 10 µM [1]	inhibition of growth at 10 µM [2]	inhibition of growth at 10 µM [3]	inhibition of growth at 10 µM [4]	inhibition of growth at 10 µM [5]	inhibition of growth at 10 µM [6]	inhibition of growth at 10 µM [7]	inhibition of growth at 10 µM [8]	inhibition of growth at 10 µM [9]	inhibition of growth at 10 µM [10]	inhibition of growth at 10 µM [11]	inhibition of growth at 10 µM [12]	inhibition of growth at 10 µM [13]	inhibition of growth at 10 µM [14]	inhibition of growth at 10 µM [15]	inhibition of growth at 10 µM [16]	inhibition of growth at 10 µM [17]	inhibition of growth at 10 µM [18]	inhibition of growth at 10 µM [19]	inhibition of growth at 10 µM [20]	further results
NNC1=Nc2c(sc3ccc(Cl)cc23)C(c2cccc([N+](=O)[O-])c2)N1 (stereo unspecified)	1.02%	6.37%	-27.2%	-18.2%	1.93%	-19.8%	18.1%	23.8%	-1.52%	-3.08%	1.16%	-5%	-3.52%	-9.18%	7.13%	-12.8%	-1.12%	1.7%	2.98%	-7.56%	inhibition of growth at 10 µM [21]: -0.35%; inhibition of growth at 10 µM [22]: 4.25%; inhibition of growth at 10 µM [23]: -26.6%; inhibition of growth at 10 µM [24]: -2.75%; inhibition of growth at 10 µM [25]: 1.81%; inhibition of growth at 10 µM [26]: 13.3%; inhibition of growth at 10 µM [27]: 42.9%; inhibition of growth at 10 µM [28]: 16.9%; inhibition of growth at 10 µM [29]: 2.22%; inhibition of growth at 10 µM [30]: 6.98%; inhibition of growth at 10 µM [31]: -1.03%; inhibition of growth at 10 µM [32]: -13.5%; inhibition of growth at 10 µM [33]: -8.15%; inhibition of growth at 10 µM [34]: -0.19%; inhibition of growth at 10 µM [35]: 5.88%; inhibition of growth at 10 µM [36]: -4.43%; inhibition of growth at 10 µM [37]: 9.49%; inhibition of growth at 10 µM [38]: -5.19%; inhibition of growth at 10 µM [39]: 15.2%
O=C1SC2=Nc3c(sc4ccc(Cl)cc34)C(c3ccc4ccccc4c3)N2C1=O (stereo unspecified)	13.2%	14.5%	13.1%	-28.7%	12.7%	-5.01%	68.7%	26.4%	5.42%	-2.51%	4.51%	12.9%	2.6%	-1.57%	16.6%	16.5%	5.81%	7.8%	-4.12%	2.92%	inhibition of growth at 10 µM [21]: 23.4%; inhibition of growth at 10 µM [22]: 34.2%; inhibition of growth at 10 µM [23]: -13.2%; inhibition of growth at 10 µM [24]: 1.4%; inhibition of growth at 10 µM [25]: 23.6%; inhibition of growth at 10 µM [26]: 12%; inhibition of growth at 10 µM [27]: 44.4%; inhibition of growth at 10 µM [28]: 12.9%; inhibition of growth at 10 µM [29]: 1.85%; inhibition of growth at 10 µM [30]: 8.58%; inhibition of growth at 10 µM [31]: 2.61%; inhibition of growth at 10 µM [32]: -2.87%; inhibition of growth at 10 µM [33]: 14.1%; inhibition of growth at 10 µM [34]: -0.63%; inhibition of growth at 10 µM [35]: 9.71%; inhibition of growth at 10 µM [36]: 7.5%; inhibition of growth at 10 µM [37]: 20.5%; inhibition of growth at 10 µM [38]: -1.12%; inhibition of growth at 10 µM [39]: 17.1%
S=C1Nc2c(sc3ccc(Cl)cc23)C(c2cccc(Br)c2)N1 (stereo unspecified)	2.82%	4.77%	31.7%	-18.3%	1.41%	-16.1%	-11.9%	22.6%	3.39%	1%	7.39%	-1%	-0.33%	-11.9%	12%	-3.61%	1%	-2.38%	-6.42%	-2.42%	inhibition of growth at 10 µM [21]: 10.9%; inhibition of growth at 10 µM [22]: 13%; inhibition of growth at 10 µM [23]: -15.7%; inhibition of growth at 10 µM [24]: 4.32%; inhibition of growth at 10 µM [25]: 8.7%; inhibition of growth at 10 µM [26]: 1.5%; inhibition of growth at 10 µM [27]: -18.3%; inhibition of growth at 10 µM [28]: 12.4%; inhibition of growth at 10 µM [29]: -0.61%; inhibition of growth at 10 µM [30]: 15.5%; inhibition of growth at 10 µM [31]: 2.38%; inhibition of growth at 10 µM [32]: 0.35%; inhibition of growth at 10 µM [33]: -6.36%; inhibition of growth at 10 µM [34]: -8.63%; inhibition of growth at 10 µM [35]: 10.4%; inhibition of growth at 10 µM [36]: 6.42%; inhibition of growth at 10 µM [37]: 12.2%; inhibition of growth at 10 µM [38]: -0.03%; inhibition of growth at 10 µM [39]: 6.34%
N=C1Nc2c(sc3ccc(Cl)cc23)C(c2cccc(Br)c2)N1 (stereo unspecified)	6.52%	7.06%	-4.39%	-23.2%	6.03%	-20.7%	25.6%	13%	-2.43%	-3.08%	1.37%	4.36%	5.21%	-10.7%	12.2%	3.3%	-8.29%	6.3%	-2.27%	1.88%	inhibition of growth at 10 µM [21]: 3.22%; inhibition of growth at 10 µM [22]: 16.5%; inhibition of growth at 10 µM [23]: -17.9%; inhibition of growth at 10 µM [24]: -4.14%; inhibition of growth at 10 µM [25]: 6.46%; inhibition of growth at 10 µM [26]: 13.7%; inhibition of growth at 10 µM [27]: 38.3%; inhibition of growth at 10 µM [28]: 14.5%; inhibition of growth at 10 µM [29]: 1.33%; inhibition of growth at 10 µM [30]: 8.49%; inhibition of growth at 10 µM [31]: 2.72%; inhibition of growth at 10 µM [32]: -3.97%; inhibition of growth at 10 µM [33]: -8.11%; inhibition of growth at 10 µM [34]: 1.22%; inhibition of growth at 10 µM [35]: 7.9%; inhibition of growth at 10 µM [36]: 1.65%; inhibition of growth at 10 µM [37]: 13.7%; inhibition of growth at 10 µM [38]: -3.33%; inhibition of growth at 10 µM [39]: 10.2%
